# Data taken from patent US12214092B2, “Systems and methods for treating biological fluids” (Cerus Corporation, priority 2017, dated 2025).
# Tested on: S. epidermidis
# Test: Amotosalen and two sequential UV light doses (UVC + UVA) treatment of S. epidermidis in plasma, colony forming unit assay
# Format: cell-based
# Conditions: 15 μM amotosalen, titer pre-UV 7.51; for Titer Post-Second: ~3 J/cm^2 each
# Description: Additionally, any two or more wavelengths of narrow bandwidth light are evaluated in combination, such as for example, photochemical treatment of a biological fluid using amotosalen and ultraviolet light of a first peak wavelength and ultraviolet light of a second peak wavelength, sequentially or concurrently. More specifically, in one example pathogen inactivation of E. coli (Gram negative) and S. epidermidis (Gram positive) bacteria was evaluated using amotosalen and the device with LEDs of wavelengths described in Example 8. […] The spiked plasma units were divided into control (no amotosalen+UV light) and treatment (with amotosalen) conditions, with amotosalen used at 15 μM concentration. The units were aliquoted into six-well plates (5 mL/well) for illumination. Pre-illumination samples were taken and control bacterial titers determined using standard colony forming unit assay. […] Data for pre-illumination titers, post-first illumination titer, post-second illumination titer, and post-treatment (after second illumination) residual amotosalen (S-59) are shown in the following Tables 40-41.
smiles,measurement,setting,value
"Cc1oc2c(C)c3oc(=O)cc(C)c3cc2c1COCCN [S-59, 3-(2-aminoethoxymethyl)-2,5,9-trimethylfuro[3,2-g]chromen-7-one]",Titer Post-Second,Light 1 265 nm then Light 2 325 nm,<−0.11
same,Titer Post-Second,Light 1 265 nm then Light 2 340 nm,<−0.11
same,Titer Post-Second,Light 1 265 nm then Light 2 365 nm,<−0.11
same,Titer Post-First,Light 1 265 nm ~3 J/cm^2 (then 325 nm),4.19
same,Titer Post-First,Light 1 265 nm ~3 J/cm^2 (then 340 nm),4.37
same,Titer Post-First,Light 1 265 nm ~3 J/cm^2 (then 365 nm),4.12
same,Titer Post-Second,Light 1 280 nm then Light 2 325 nm,<−0.11
same,Titer Post-Second,Light 1 280 nm then Light 2 340 nm,<−0.11
same,Titer Post-Second,Light 1 280 nm then Light 2 365 nm,<−0.11
same,Titer Post-First,Light 1 280 nm ~3 J/cm^2 (then 325 nm),4.13
same,Titer Post-First,Light 1 280 nm ~3 J/cm^2 (then 340 nm),4.51
same,Titer Post-First,Light 1 280 nm ~3 J/cm^2 (then 365 nm),4.19
same,Titer Post-Second,Light 1 325 nm then Light 2 265 nm,<−0.11
same,Titer Post-Second,Light 1 325 nm then Light 2 280 nm,<−0.11
same,Titer Post-First,Light 1 325 nm ~3 J/cm^2 (then 265 nm),<−0.11
same,Titer Post-First,Light 1 325 nm ~3 J/cm^2 (then 280 nm),<−0.11
same,Titer Post-Second,Light 1 340 nm then Light 2 265 nm,<−0.11
same,Titer Post-Second,Light 1 340 nm then Light 2 280 nm,<−0.11
same,Titer Post-First,Light 1 340 nm ~3 J/cm^2 (then 265 nm),<−0.11
same,Titer Post-First,Light 1 340 nm ~3 J/cm^2 (then 280 nm),0.73
same,Titer Post-Second,Light 1 365 nm then Light 2 265 nm,<−0.11
same,Titer Post-Second,Light 1 365 nm then Light 2 280 nm,<−0.11
same,Titer Post-First,Light 1 365 nm ~3 J/cm^2 (then 265 nm),<−0.11
same,Titer Post-First,Light 1 365 nm ~3 J/cm^2 (then 280 nm),<−0.11
